{"source": "patent US8425840B2", "about": "“Microchip and blood monitoring device” (Fujimori Kogyo Co., Ltd., priority 2007, dated 2013)", "tested_on": "platelets", "assay": "measurement of platelet function using the thrombus monitoring system C (microchip 4, citrated whole blood mixed with ADP under flow)", "format": "cell-based", "details": "for time after the beginning of the measurement at which an obvious platelet aggregate was formed in the thrombus formation chamber: collagen/PT reagent coated chamber", "method": "The stirring section 413 was in the shape of a circle having a diameter of […] and narrowing in fan-like fashion in the direction toward the downstream, and its depth was 1.2 mm. The stirring bar 417 was a stirring bar in the shape of a cylinder having a length of 2 mm and a diameter of 1 mm, whose surface was coated with nickel.\nAs the thrombus-inducing agent, 24 μL of a mixture of collagen type I (Nitta Gelatin Inc.) and PT reagent (Sysmex Corporation) was applied in a square shape sizing 1 cm×1 cm, and dried under reduced pressure at −0.08 MPa for 3 hours. The coating with the thrombus-inducing material was carried out such that the merged channel 403 was not passing the center of the square area on which the thrombus-inducing material was applied, that is, such that the merged channel 403 was passing 2.5 mm away from an edge of the square, when the substrate 400 and the substrate 410 were bonded to each other. As the collagen type I, one having a concentration of 3 mg/ml was used. As the PT reagent, one prepared by dissolving 1 vial of PT reagent manufactured by Sysmex Corporation in 2 ml of purified water and dialyzing the resulting solution against purified water overnight, followed by mixing the resultant at a ratio of 1:1 was used.\nTo the blood reservoir 433, the first pump 420 was connected, and the first connection nozzle 435 and the second connection nozzle 436 were connected to the second pump 421 and the third pump 422, respectively.\nMineral oil was filled in the first pump 420; purified water and 1 μM or 2 μM ADP solution were filled in the second pump 421; and 0.5 M EDTA (pH 10) solution was filled in the third pump 422.\nBlood prepared by mixing the blood immediately after collection with 3.2% sodium citrate solution at a volume ratio between the blood and the sodium citrate solution being 9:1 was filled in the blood reservoir 433.\nThe programs executed for the first pump 420, second pump 421 and the third pump 422 were the same with those in Example 7 (Table 3). […]"}
{"smiles": "Nc1ncnc2c1ncn2[C@@H]1O[C@H](COP(=O)(O)OP(=O)(O)O)[C@@H](O)[C@H]1O", "note": "[ADP, adenosine diphosphate]", "values": [{"measurement": "time after the beginning of the measurement at which an obvious platelet aggregate was formed in the thrombus formation chamber", "setting": "1 μM ADP solution in second pump", "value": 15, "unit": "min"}, {"measurement": "increase in pressure due to platelet aggregate (pressure sensor)", "setting": "1 μM or 2 μM ADP in second pump", "value": "no increase in pressure occurred"}, {"measurement": "time after the beginning of the measurement at which an obvious platelet aggregate was formed in the thrombus formation chamber", "setting": "2 μM ADP solution in second pump", "value": 10, "unit": "min"}]}
